Here are results for six compounds from ChEMBL document CHEMBL1909046, “DrugMatrix in vitro pharmacology data”.

Series [1] has as its target Beta-2 adrenergic receptor (Homo sapiens, UniProt P07550). Put plainly: DRUGMATRIX: Adrenergic beta2 radioligand binding (ligand: [3H] CGP-12177). Format: cell membranes, Membrane. The conditions noted are these: cho; Not Active = under 50% inhibition at 10 µM.
Series [2] is described as follows: DRUGMATRIX: Atrial Natriuretic Factor (ANF) radioligand binding (ligand: [125I] ANF (rat)). Format: cell membranes, Cavia porcellus, Dunkin-Hartley, Adrenal gland, Membrane. The conditions noted are these: Not Active = under 50% inhibition at 10 µM.
Series [3] has as its target T1, 5-hydroxytryptamine receptor 2C (Homo sapiens, UniProt P28335).
T1 sequence (P28335 whole entry): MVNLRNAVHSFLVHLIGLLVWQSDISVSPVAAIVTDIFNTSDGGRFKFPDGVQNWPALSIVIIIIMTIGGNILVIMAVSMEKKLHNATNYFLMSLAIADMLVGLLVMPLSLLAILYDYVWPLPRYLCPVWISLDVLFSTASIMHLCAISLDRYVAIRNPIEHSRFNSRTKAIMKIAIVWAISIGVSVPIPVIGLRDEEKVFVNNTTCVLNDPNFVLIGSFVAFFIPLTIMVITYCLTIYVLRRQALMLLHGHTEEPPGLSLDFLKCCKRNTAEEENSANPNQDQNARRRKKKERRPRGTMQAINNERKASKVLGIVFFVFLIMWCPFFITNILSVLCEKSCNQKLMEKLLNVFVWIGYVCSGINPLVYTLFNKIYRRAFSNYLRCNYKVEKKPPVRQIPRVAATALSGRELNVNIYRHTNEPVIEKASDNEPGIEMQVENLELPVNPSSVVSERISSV
Put plainly: DRUGMATRIX: Serotonin (5-Hydroxytryptamine) 5-HT2C radioligand binding (ligand: [3H] Mesulergine). It is filed as cell membranes, CHO-K1, Membrane. The conditions noted are these: Not Active = under 50% inhibition at 10 µM.

Series [4] can be described thus: DRUGMATRIX: Tumor Necrosis Factor (TNF), Non-Selective radioligand binding (ligand: [125I] TNF-alpha). The conditions noted are these: u-937; Not Active = under 50% inhibition at 10 µM. Format: cell membranes, Membrane.
Series [5] has as its target Prostaglandin G/H synthase 1 (Homo sapiens, UniProt P23219). Put plainly: biochemical. Format: tissue-based, Platelet. The conditions noted are these: platelet.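 Further: inhibition of COX-1 enzyme activity, with arachidonic acid supplied as substrate; in other assays of this panel Not Active means under 50% inhibition at 10 µM.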
Series [6] is described as follows: DRUGMATRIX: Glutamate, NMDA, Agonism radioligand binding (ligand: [3H] CGP-39653). Format: cell membranes, Rattus norvegicus, Wistar, Cerebral cortex, Membrane. To be noted: Not Active = under 50% inhibition at 10 µM.
A short description of series [7]: DRUGMATRIX: Nicotinic Acetylcholine radioligand binding (ligand: [125I] Epibatidine). The conditions noted are these: imr-32; Not Active = under 50% inhibition at 10 µM. It is filed as cell membranes, Membrane.
Series [8] has as its target Platelet-activating factor receptor (Homo sapiens, UniProt P25105). Put plainly: biochemical. Format: tissue-based. The conditions noted are these: platelet. Further: in other assays of this panel Not Active means under 50% inhibition at 10 µM.
In series [9] the target is T2, Angiotensin-converting enzyme (Oryctolagus cuniculus, UniProt P12822).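 Further: enzymatic inhibition of angiotensin-converting enzyme measured with FAPGG as the substrate; in other assays of this panel Not Active means under 50% inhibition at 10 µM.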
T2 sequence (P12822 whole entry): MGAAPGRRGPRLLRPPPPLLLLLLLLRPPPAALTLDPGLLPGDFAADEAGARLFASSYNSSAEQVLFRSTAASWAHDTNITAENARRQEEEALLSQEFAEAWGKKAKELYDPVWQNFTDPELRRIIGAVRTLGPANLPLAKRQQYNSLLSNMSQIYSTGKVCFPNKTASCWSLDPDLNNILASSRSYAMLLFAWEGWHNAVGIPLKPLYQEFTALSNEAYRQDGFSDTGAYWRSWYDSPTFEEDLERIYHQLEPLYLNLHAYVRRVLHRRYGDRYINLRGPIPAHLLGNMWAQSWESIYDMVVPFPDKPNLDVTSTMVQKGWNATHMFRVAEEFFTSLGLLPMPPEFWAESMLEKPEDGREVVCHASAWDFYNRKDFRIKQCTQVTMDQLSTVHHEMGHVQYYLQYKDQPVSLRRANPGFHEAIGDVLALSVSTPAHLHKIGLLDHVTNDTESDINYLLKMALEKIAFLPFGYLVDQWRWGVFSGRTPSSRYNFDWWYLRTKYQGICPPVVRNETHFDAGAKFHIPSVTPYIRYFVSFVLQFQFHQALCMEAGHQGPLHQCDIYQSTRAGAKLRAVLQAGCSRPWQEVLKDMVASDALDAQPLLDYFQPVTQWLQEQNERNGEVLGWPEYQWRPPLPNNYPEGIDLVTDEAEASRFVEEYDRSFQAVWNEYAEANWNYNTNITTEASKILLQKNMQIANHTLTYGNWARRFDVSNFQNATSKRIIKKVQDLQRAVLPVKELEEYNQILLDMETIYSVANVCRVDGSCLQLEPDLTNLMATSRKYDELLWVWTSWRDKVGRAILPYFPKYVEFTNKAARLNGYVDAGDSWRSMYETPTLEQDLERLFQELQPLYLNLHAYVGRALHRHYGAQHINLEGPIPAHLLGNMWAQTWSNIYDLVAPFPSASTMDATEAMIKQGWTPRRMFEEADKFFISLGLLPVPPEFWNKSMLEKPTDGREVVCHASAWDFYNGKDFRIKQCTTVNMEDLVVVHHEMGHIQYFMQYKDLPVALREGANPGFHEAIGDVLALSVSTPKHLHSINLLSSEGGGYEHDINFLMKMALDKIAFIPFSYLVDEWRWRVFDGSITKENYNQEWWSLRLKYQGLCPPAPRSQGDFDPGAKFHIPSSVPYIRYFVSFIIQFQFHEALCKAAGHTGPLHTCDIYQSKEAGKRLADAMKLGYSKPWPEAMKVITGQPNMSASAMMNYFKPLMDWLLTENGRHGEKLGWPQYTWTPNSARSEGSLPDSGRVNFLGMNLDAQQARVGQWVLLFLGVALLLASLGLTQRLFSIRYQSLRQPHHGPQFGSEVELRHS
Put plainly: biochemical. It is filed as tissue-based, Lung.

Series [10] has as its target T3, Caspase-1 (Homo sapiens, UniProt P29466).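 Further: Caspase-1 enzyme inhibition assay with a peptide substrate; in other assays of this panel Not Active means under 50% inhibition at 10 µM.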
T3 sequence (P29466 whole entry): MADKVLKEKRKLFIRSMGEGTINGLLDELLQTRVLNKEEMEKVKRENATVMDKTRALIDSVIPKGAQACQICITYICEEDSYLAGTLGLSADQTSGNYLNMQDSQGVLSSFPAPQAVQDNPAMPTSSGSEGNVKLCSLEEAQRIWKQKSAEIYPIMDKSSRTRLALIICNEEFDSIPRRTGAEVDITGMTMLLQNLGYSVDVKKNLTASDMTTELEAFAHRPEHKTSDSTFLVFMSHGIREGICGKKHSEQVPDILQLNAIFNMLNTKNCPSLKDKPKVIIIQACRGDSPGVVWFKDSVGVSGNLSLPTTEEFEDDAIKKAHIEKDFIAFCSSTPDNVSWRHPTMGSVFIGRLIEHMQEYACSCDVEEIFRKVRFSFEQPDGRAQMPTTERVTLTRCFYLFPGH
Details: species or system Escherichia coli.

In series [11] the target is Protein kinase C alpha type (Homo sapiens, UniProt P17252). It is filed as cell-based. To be noted: sf9.
Series [12] concerns the target Cytochrome P450 3A4 (Homo sapiens, UniProt P08684). To be noted: bti-tn-5b1-4. Further: in other assays of this panel Not Active means under 50% inhibition at 10 µM.

Where a SMILES comes first, the peptide text is derived from it. Bridges are numbered along the chain shown (N, C = ends). [ ]: non-standard residue; d: D form. The star is where a group is joined. Ileψ(thiazoline)Cys = CC[C@H](C)[C@H](N)C1=N[C@H](C(=O)*)CS1; dOrn = NCCC[C@@H](N)C(=O)O

By IC50 is commonly meant the concentration needed to halve the response being measured. What is called Ki is a dissociation constant, usually derived from enzyme kinetics or from competition with a known ligand.

Cytochrome P450 3A4, sequence (P08684 whole entry): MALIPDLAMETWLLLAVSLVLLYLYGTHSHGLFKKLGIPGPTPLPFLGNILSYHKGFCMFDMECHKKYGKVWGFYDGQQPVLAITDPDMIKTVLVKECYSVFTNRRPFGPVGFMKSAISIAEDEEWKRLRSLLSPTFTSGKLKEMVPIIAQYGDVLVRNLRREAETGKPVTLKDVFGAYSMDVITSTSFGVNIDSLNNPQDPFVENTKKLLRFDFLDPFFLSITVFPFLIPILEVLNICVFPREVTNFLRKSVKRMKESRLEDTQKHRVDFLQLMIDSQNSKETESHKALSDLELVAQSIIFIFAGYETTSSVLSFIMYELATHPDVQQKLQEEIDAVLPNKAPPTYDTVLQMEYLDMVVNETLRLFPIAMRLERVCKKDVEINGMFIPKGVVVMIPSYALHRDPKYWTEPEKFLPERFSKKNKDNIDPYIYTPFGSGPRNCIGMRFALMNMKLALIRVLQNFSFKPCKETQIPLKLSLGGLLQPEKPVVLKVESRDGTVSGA
Platelet-activating factor receptor, sequence (P25105 whole entry): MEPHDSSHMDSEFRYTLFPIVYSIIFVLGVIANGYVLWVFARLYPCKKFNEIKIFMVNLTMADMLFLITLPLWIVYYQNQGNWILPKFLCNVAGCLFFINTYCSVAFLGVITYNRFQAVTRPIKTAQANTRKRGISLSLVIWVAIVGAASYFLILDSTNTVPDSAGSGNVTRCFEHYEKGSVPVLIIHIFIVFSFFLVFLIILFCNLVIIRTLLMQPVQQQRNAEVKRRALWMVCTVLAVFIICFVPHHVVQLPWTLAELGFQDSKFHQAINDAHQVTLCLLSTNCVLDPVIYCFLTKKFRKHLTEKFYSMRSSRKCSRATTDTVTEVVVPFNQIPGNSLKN
Beta-2 adrenergic receptor, sequence (P07550 whole entry): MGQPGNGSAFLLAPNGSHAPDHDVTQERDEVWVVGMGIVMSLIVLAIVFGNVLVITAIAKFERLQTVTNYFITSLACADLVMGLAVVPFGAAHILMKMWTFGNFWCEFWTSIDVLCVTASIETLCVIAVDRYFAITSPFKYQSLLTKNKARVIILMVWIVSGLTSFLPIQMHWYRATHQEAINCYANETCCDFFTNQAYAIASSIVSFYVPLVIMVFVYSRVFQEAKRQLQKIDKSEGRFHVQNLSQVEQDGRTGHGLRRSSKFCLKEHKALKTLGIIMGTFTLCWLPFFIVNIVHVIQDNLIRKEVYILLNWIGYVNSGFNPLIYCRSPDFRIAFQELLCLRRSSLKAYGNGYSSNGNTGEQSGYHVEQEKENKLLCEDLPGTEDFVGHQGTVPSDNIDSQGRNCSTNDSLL
Prostaglandin G/H synthase 1, sequence (P23219 whole entry): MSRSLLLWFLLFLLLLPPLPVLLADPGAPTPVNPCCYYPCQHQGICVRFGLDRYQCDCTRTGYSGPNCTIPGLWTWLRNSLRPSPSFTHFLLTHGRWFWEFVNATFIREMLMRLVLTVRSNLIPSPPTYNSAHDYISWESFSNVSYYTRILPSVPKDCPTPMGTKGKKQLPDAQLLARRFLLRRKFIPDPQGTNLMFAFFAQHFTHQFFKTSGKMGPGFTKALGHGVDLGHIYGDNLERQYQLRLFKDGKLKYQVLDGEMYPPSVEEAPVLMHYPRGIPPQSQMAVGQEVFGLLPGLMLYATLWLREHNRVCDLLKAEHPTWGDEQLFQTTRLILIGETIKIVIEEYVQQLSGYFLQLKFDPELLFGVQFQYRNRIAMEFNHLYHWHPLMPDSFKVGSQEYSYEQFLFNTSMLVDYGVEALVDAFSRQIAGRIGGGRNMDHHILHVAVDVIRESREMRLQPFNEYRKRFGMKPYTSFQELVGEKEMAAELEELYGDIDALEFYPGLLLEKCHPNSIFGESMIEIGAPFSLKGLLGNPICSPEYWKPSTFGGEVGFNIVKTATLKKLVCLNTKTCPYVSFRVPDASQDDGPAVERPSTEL

In the case of `CC[C@H](C)[C@H](N)C1=N[C@H](C(=O)N[C@@H](CC(C)C)C(=O)N[C@H](CCC(=O)O)C(=O)N[C@H](C(=O)N[C@H]2CCCCNC(=O)[C@H](CC(N)=O)NC(=O)[C@@H](CC(=O)O)NC(=O)[C@H](Cc3cnc[nH]3)NC(=O)[C@@H](Cc3ccccc3)NC(=O)[C@H]([C@@H](C)CC)NC(=O)[C@@H](CCCN)NC2=O)[C@@H](C)CC)CS1` [BACITRACIN] ({Ileψ(thiazoline)Cys}-L[dE]IK[dOrn]I[dF]H[dD]N; lactam 4-C), the IC50 entry in series [1], in series [2], in [3] (cho-k1), in [4], in series [5] and in series [6] was “Not Active” in each case. Further, the IC50 result in [7], in [8], in series [9], in [10], in series [11] and in [12] was “Not Active” in each case. The Ki entry in [2], in series [4], in series [6], in series [7] and in [12] was “Not Active” in each case.
For `CCOC(=O)c1ccc(N)cc1` [BENZOCAINE], the IC50 result in [1], in series [2], in series [3] (cho-k1), in series [4], in series [5] and in series [6] was “Not Active” throughout. In addition, the IC50 result in [7], in [8], in series [9], in [10], in [11] and in series [12] was “Not Active” each time. The Ki result in series [2], in series [4], in series [6], in [7] and in series [12] was “Not Active” each time.
As to `OCc1ccccc1` [BENZYL ALCOHOL], the IC50 entry in [1], in series [2], in [3] (cho-k1), in [4], in series [5] and in series [6] was “Not Active” in each case. Also, the IC50 result in series [7], in series [8], in [9], in series [10], in series [11] and in series [12] was “Not Active” each time. In addition, the Ki result in series [2], in series [4], in series [6], in series [7] and in [12] was “Not Active” throughout.
For `CC(C)(Oc1ccc(CCNC(=O)c2ccc(Cl)cc2)cc1)C(=O)O` [BEZAFIBRATE], the 50% inhibitory concentration (IC50) entry in series [1], in [2], in series [3] (cho-k1), in series [4], in series [5] and in series [6] was “Not Active” throughout. In addition, the IC50 entry in series [7], in series [8], in [9], in series [10], in series [11] and in [12] was “Not Active” throughout. Also, the Ki entry in series [2], in series [4], in series [6], in [7] and in [12] was “Not Active” each time.
As for `CCCC[C@@H](CC)COC(=O)c1ccccc1C(=O)OC[C@@H](CC)CCCC` [BIS(2-ETHYLHEXYL)PHTHALATE], the IC50 result in series [1], in [2], in series [3] (cho-k1), in [4], in [5] and in series [6] was “Not Active” in each case. In addition, the IC50 result in series [7], in [8], in series [9], in series [10], in series [11] and in series [12] was “Not Active” each time. In addition, the inhibition constant Ki result in series [2], in series [4], in series [6], in series [7] and in series [12] was “Not Active” in each case.
As to `Oc1c(Cl)cc(Cl)cc1Sc1cc(Cl)cc(Cl)c1O` [BITHIONOL], the IC50 entry in series [1] was “Not Active”; in [2] it was “Not Active”; in series [3] (read-out: IC50), 8.78 µM; in series [4] it was “Not Active”; in series [5] it was “Not Active”; in series [6], “Not Active”. The IC50 result in series [7], in series [8], in [9], in series [10], in series [11] and in series [12] was “Not Active” each time. Further, the Ki result is “Not Active” in [2]; 4.6 µM in series [3] (read-out: Ki); “Not Active” in [4]; “Not Active” in series [6]; “Not Active” in [7]; “Not Active” in series [12].
